Results published in ChEMBL document CHEMBL1201862, “PubChem BioAssay data set” (2004).
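A five-concentration, 48-hour dose response in 96-well plates underlies each endpoint, interpolated linearly between surrounding concentrations. The concentration for 50% growth inhibition is given as GI50.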 Active and inactive are the calls of the source. No stated cut-off is given here; in the data, active = GI50 up to about 1.1 µM and inactive = higher.

What was measured:
Test in all cases: growth of human tumour cells (NCI), 48 h
[1] = test system: CCRF-CEM
[2] = test system: COLO 205
[3] = test system: DU-145
[4] = test system: EKVX
[5] = test system: HCC 2998
[6] = test system: NCI-H226
[7] = test system: NCI-H460
[8] = test system: NCI-H522
[9] = test system: PC-3
[10] = test system: RXF 393
[11] = test system: SF-539
[12] = test system: SW-620
[13] = test system: TK-10
[14] = test system: U-251
[15] = test system: MCF7
[16] = test system: OVCAR-4
[17] = test system: SK-MEL-5
[18] = test system: T47D
[19] = test system: UACC-62

SMILES	GI50 [1]	GI50 [2]	GI50 [3]	GI50 [4]	GI50 [5]	GI50 [6]	GI50 [7]	GI50 [8]	GI50 [9]	GI50 [10]	GI50 [11]	GI50 [12]	GI50 [13]	GI50 [14]	GI50 [15]	GI50 [16]	GI50 [17]	GI50 [18]	GI50 [19]
C=C1C(=O)C23C(O)CC4C(C)(C)CCC(O)C4(C)C2CC(OC(C)=O)C1[C@H]3O (stereo partly drawn)	0.442 µM (active)	1.98 µM (inactive)	> 10 µM (inactive)	4.88 µM (inactive)	4.06 µM (inactive)	9.31 µM (inactive)	4.25 µM (inactive)	0.123 µM (active)	11.4 µM (inactive)	2.62 µM (inactive)	3.5 µM (inactive)	1.01 µM (active)	2.22 µM (inactive)	8.81 µM (inactive)	–	–	–	–	–
Oc1c2cc(Cl)cc1COCc1cc(Cl)cc(c1O)COCc1cc(Cl)cc(c1O)COC2	9.44 µM (inactive)	89.5 µM (inactive)	28.2 µM (inactive)	54 µM (inactive)	> 100 µM (inactive)	30.5 µM (inactive)	22.9 µM (inactive)	–	> 100 µM (inactive)	18.3 µM (inactive)	–	> 100 µM (inactive)	46.8 µM (inactive)	29.4 µM (inactive)	74.3 µM (inactive)	23 µM (inactive)	> 100 µM (inactive)	15.7 µM (inactive)	56.5 µM (inactive)
CN(C)C1(N(C)C)Oc2c(c(=O)n(C)c(=O)n2C)C(c2ccccc2)C1(F)F (stereo not drawn)	> 100 µM (inactive)	> 100 µM (inactive)	> 100 µM (inactive)	> 100 µM (inactive)	> 100 µM (inactive)	> 100 µM (inactive)	> 100 µM (inactive)	–	> 100 µM (inactive)	> 100 µM (inactive)	–	> 100 µM (inactive)	> 100 µM (inactive)	> 100 µM (inactive)	> 100 µM (inactive)	> 100 µM (inactive)	> 100 µM (inactive)	> 100 µM (inactive)	> 100 µM (inactive)
CCC(=O)N/S(=N/S(=O)(=O)c1ccccc1)C(Cl)(Cl)Cl (stereo not drawn)	> 100 µM (inactive)	> 100 µM (inactive)	> 100 µM (inactive)	> 100 µM (inactive)	> 100 µM (inactive)	> 100 µM (inactive)	> 100 µM (inactive)	–	> 100 µM (inactive)	> 100 µM (inactive)	> 100 µM (inactive)	> 100 µM (inactive)	> 100 µM (inactive)	> 100 µM (inactive)	> 100 µM (inactive)	> 100 µM (inactive)	> 100 µM (inactive)	> 100 µM (inactive)	> 100 µM (inactive)
CC12CCCCC1C(=O)C2(Cl)Cl (stereo not drawn)	1.42 µM (inactive)	–	–	2.76 µM (inactive)	1.79 µM (inactive)	–	2.28 µM (inactive)	1.89 µM (inactive)	–	3.72 µM (inactive)	2.17 µM (inactive)	2.05 µM (inactive)	3.85 µM (inactive)	2.21 µM (inactive)	–	3.49 µM (inactive)	1.83 µM (inactive)	–	2.2 µM (inactive)
CCOC(=O)C(C)(Cc1ccc(O)cn1)NC(=O)c1ccccc1 (stereo not drawn)	> 100 µM (inactive)	> 100 µM (inactive)	> 100 µM (inactive)	> 100 µM (inactive)	> 100 µM (inactive)	> 100 µM (inactive)	> 100 µM (inactive)	> 100 µM (inactive)	> 100 µM (inactive)	> 100 µM (inactive)	> 100 µM (inactive)	> 100 µM (inactive)	> 100 µM (inactive)	> 100 µM (inactive)	–	> 100 µM (inactive)	> 100 µM (inactive)	–	> 100 µM (inactive)
COc1ccc2nc3n(c2c1)C(=O)c1ccccc1-3	> 100 µM (inactive)	> 100 µM (inactive)	> 100 µM (inactive)	> 100 µM (inactive)	> 100 µM (inactive)	> 100 µM (inactive)	> 100 µM (inactive)	> 100 µM (inactive)	> 100 µM (inactive)	> 100 µM (inactive)	> 100 µM (inactive)	> 100 µM (inactive)	> 100 µM (inactive)	> 100 µM (inactive)	> 100 µM (inactive)	> 100 µM (inactive)	> 100 µM (inactive)	–	> 100 µM (inactive)
COc1cc(Cc2cc3c(c(C(=O)O)c2Br)OCO3)cc(OC)c1OC	34.6 µM (inactive)	> 100 µM (inactive)	> 100 µM (inactive)	> 100 µM (inactive)	> 100 µM (inactive)	> 100 µM (inactive)	> 100 µM (inactive)	–	> 100 µM (inactive)	–	29.6 µM (inactive)	69.2 µM (inactive)	> 100 µM (inactive)	> 100 µM (inactive)	62.1 µM (inactive)	> 100 µM (inactive)	51.1 µM (inactive)	> 100 µM (inactive)	33.5 µM (inactive)
Cc1cc(O)cc(O)c1C(=O)O[C@]1(C)C(=O)C=C2C=C(/C=C/C(=O)O)OC=C2C1=O	38.5 µM (inactive)	> 100 µM (inactive)	> 100 µM (inactive)	> 100 µM (inactive)	> 100 µM (inactive)	> 100 µM (inactive)	> 100 µM (inactive)	–	> 100 µM (inactive)	> 100 µM (inactive)	> 100 µM (inactive)	58.3 µM (inactive)	45.6 µM (inactive)	–	47.8 µM (inactive)	> 100 µM (inactive)	> 100 µM (inactive)	> 100 µM (inactive)	> 100 µM (inactive)
CNC(=O)OCc1nc(N=[N+]=[N-])n(C)c1COC(=O)NC	32.1 µM (inactive)	32.8 µM (inactive)	49.8 µM (inactive)	> 100 µM (inactive)	38.4 µM (inactive)	> 100 µM (inactive)	29.6 µM (inactive)	19.5 µM (inactive)	96.2 µM (inactive)	21.7 µM (inactive)	54.5 µM (inactive)	66.1 µM (inactive)	32.2 µM (inactive)	31.3 µM (inactive)	38 µM (inactive)	37.1 µM (inactive)	> 10 µM (inactive)	–	–
[N-]=[N+]=Nc1c(Cc2ccccc2)c(=O)oc2ccccc12	12.7 µM (inactive)	36.9 µM (inactive)	51.9 µM (inactive)	–	26 µM (inactive)	–	18.1 µM (inactive)	–	22.9 µM (inactive)	16.7 µM (inactive)	> 10 µM (inactive)	14.8 µM (inactive)	28.2 µM (inactive)	24.4 µM (inactive)	32.6 µM (inactive)	32.4 µM (inactive)	2.67 µM (inactive)	56.8 µM (inactive)	> 10 µM (inactive)
Cc1cc(S(=O)(=O)/N=C2\NCCN2Cc2ccccc2)c(S)cc1Cl	7.35 µM (inactive)	> 100 µM (inactive)	> 100 µM (inactive)	> 100 µM (inactive)	> 100 µM (inactive)	61.2 µM (inactive)	> 100 µM (inactive)	40.6 µM (inactive)	> 100 µM (inactive)	–	> 100 µM (inactive)	> 100 µM (inactive)	> 100 µM (inactive)	> 100 µM (inactive)	> 100 µM (inactive)	> 100 µM (inactive)	> 100 µM (inactive)	–	72.1 µM (inactive)
CC(CCC(=O)O)(c1ccc(O)cc1)c1ccc(O)cc1	–	–	> 100 µM (inactive)	> 100 µM (inactive)	–	> 100 µM (inactive)	> 100 µM (inactive)	> 100 µM (inactive)	> 100 µM (inactive)	> 100 µM (inactive)	–	> 100 µM (inactive)	> 100 µM (inactive)	> 100 µM (inactive)	–	> 100 µM (inactive)	> 100 µM (inactive)	> 100 µM (inactive)	> 100 µM (inactive)
O=C(/C=C\c1ccccc1)N1CCc2ccccc2C1	29 µM (inactive)	20.6 µM (inactive)	> 100 µM (inactive)	32.4 µM (inactive)	> 100 µM (inactive)	> 100 µM (inactive)	60.3 µM (inactive)	–	34.4 µM (inactive)	44.4 µM (inactive)	49.8 µM (inactive)	63.5 µM (inactive)	> 100 µM (inactive)	80.7 µM (inactive)	49.7 µM (inactive)	93.1 µM (inactive)	17.1 µM (inactive)	20.1 µM (inactive)	43.4 µM (inactive)
COc1ccc(-c2c3c(n(C4OC(CO)C(O)C(O)C4O)c(=S)c2C#N)CCC3)cc1 (stereo not drawn)	32.6 µM (inactive)	68.9 µM (inactive)	66.7 µM (inactive)	–	66.2 µM (inactive)	–	45.2 µM (inactive)	–	41.3 µM (inactive)	22.4 µM (inactive)	20.4 µM (inactive)	71.9 µM (inactive)	> 100 µM (inactive)	37.1 µM (inactive)	37.6 µM (inactive)	79.1 µM (inactive)	14.8 µM (inactive)	44.9 µM (inactive)	42 µM (inactive)
O=c1n(N=[S+]([O-])(c2ccccc2)c2ccccc2)c(=O)n2n1C1C=CC2CC1	> 100 µM (inactive)	> 100 µM (inactive)	> 100 µM (inactive)	> 100 µM (inactive)	–	> 100 µM (inactive)	> 100 µM (inactive)	–	> 100 µM (inactive)	–	> 100 µM (inactive)	> 100 µM (inactive)	> 100 µM (inactive)	> 100 µM (inactive)	> 100 µM (inactive)	–	> 100 µM (inactive)	> 100 µM (inactive)	> 100 µM (inactive)
COC1CC(OC)C2OC(c3ccccc3)OCC2O1 (stereo not drawn)	> 100 µM (inactive)	–	–	> 100 µM (inactive)	> 100 µM (inactive)	–	> 100 µM (inactive)	> 100 µM (inactive)	–	> 100 µM (inactive)	> 100 µM (inactive)	> 100 µM (inactive)	> 100 µM (inactive)	> 100 µM (inactive)	–	–	> 100 µM (inactive)	–	> 100 µM (inactive)
